Values of other authors, collected in patent US20100144855A1, “APPLICATION OF SEDOISOPROSAN FOR PREPARATION OF MEDICINE FOR TREATMENT OF HUMAN HBeAg POSITIVE CHRONIC HEPATITIS B” (priority 2008, published 2010).

Conditions: animal experiments; cited from earlier work

**Q.** Which “activity of ACP and TNE” value does the source give for `CC1(C)OC2C3COC(CO)(O3)C(O)C2O1` (centres unmarked) [sedoisoprosan, isopropylidene sedoheptulosan] here?
**A.** The value was “enhance”.

**Q.** And the immune system?
**A.** Its immune system is “regulate”.
